The source of these data is PMC5218480 (PLoS ONE, 2017).

This test has as its system MV-4-11 cells. The test can be described thus: Gene expression microarray analysis (Affymetrix PrimeView) and GSEA. The test is classed as cell-based, human. More on the design: RFU PODN (11730768_x_at) / Fold change /veh PODN (11730768_x_at) / RFU LINC00158 (11744669_a_at) / Fold change /veh LINC00158 (11744669_a_at) / RFU DUSP10 (11751237_a_at) / Fold change /veh DUSP10 (11751237_a_at) / RFU ID3 (11757404_x_at) / Fold change /veh ID3 (11757404_x_at) / RFU PLEKHG5 (11737974_s_at) / Fold change /veh PLEKHG5 (11737974_s_at) / RFU LRRC4B (11730491_at) / Fold change /veh LRRC4B (11730491_at) / RFU GIMAP4 (11747438_a_at) / Fold change /veh GIMAP4 (11747438_a_at) / RFU KRT8 (11758183_x_at) / Fold change /veh KRT8 (11758183_x_at) / RFU CNN1 (11734310_a_at) / Fold change /veh CNN1 (11734310_a_at) / RFU VPS37D (11726825_at) / Fold change /veh VPS37D (11726825_at) / RFU C10orf10 (11716522_x_at) / Fold change /veh C10orf10 (11716522_x_at) / RFU KIR2DL2 /// KIR2DL4 /// KIR2DL5A /// KIR2DL5B /// KIR2DS1 /// KIR2DS2 /// KIR2DS3 /// KIR2DS4 /// KIR3DL3 /// KIR3DL3 /// KIR3DS1 (11738374_at) / Fold change /veh KIR2DL2 /// KIR2DL4 /// KIR2DL5A /// KIR2DL5B /// KIR2DS1 /// KIR2DS2 /// KIR2DS3 /// KIR2DS4 /// KIR3DL3 /// KIR3DL3 /// KIR3DS1 (11738374_at) / RFU C1QL1 (11718748_at) / Fold change /veh C1QL1 (11718748_at) / RFU TMPRSS4 (11747572_a_at) / Fold change /veh TMPRSS4 (11747572_a_at) / RFU HAMP (11756126_x_at) / Fold change /veh HAMP (11756126_x_at) / RFU RNFT2 (11725882_a_at) / Fold change /veh RNFT2 (11725882_a_at) / RFU NR4A2 (11747474_a_at) / Fold change /veh NR4A2 (11747474_a_at) / RFU ABCC12 (11746883_a_at) / Fold change /veh ABCC12 (11746883_a_at) / RFU TMEM136 (11760407_x_at) / Fold change /veh TMEM136 (11760407_x_at) / RFU CLDN22 /// WWC2 (11732394_at) / Fold change /veh CLDN22 /// WWC2 (11732394_at) / RFU HLA-DPB1 (11760878_x_at) / Fold change /veh HLA-DPB1 (11760878_x_at) / RFU SPINT1 (11716480_a_at) / Fold change /veh SPINT1 (11716480_a_at) / RFU GAP43 (11754022_s_at) / Fold change /veh GAP43 (11754022_s_at) / RFU A4GNT (11735810_at) / Fold change /veh A4GNT (11735810_at) / RFU PRB3 (11715151_x_at) / Fold change /veh PRB3 (11715151_x_at) / RFU TUBB4B (11761932_at) / Fold change /veh TUBB4B (11761932_at) / RFU CAPN14 (11732068_a_at) / Fold change /veh CAPN14 (11732068_a_at) / RFU TMCC2 (11721928_a_at) / Fold change /veh TMCC2 (11721928_a_at) / RFU IRGQ (11745062_a_at) / Fold change /veh IRGQ (11745062_a_at) / RFU FAM174B (11720279_a_at) / Fold change /veh FAM174B (11720279_a_at) / RFU TMPRSS4 (11748680_a_at) / Fold change /veh TMPRSS4 (11748680_a_at) / RFU FAM212B (11763350_a_at) / Fold change /veh FAM212B (11763350_a_at) / RFU PLEKHG5 (11743358_a_at) / Fold change /veh PLEKHG5 (11743358_a_at) / RFU ZSCAN30 (11745921_a_at) / Fold change /veh ZSCAN30 (11745921_a_at) / RFU CMKLR1 (11741424_a_at) / Fold change /veh CMKLR1 (11741424_a_at) / RFU LOC101060620 /// MAPK8IP1 (11723275_at) / Fold change /veh LOC101060620 /// MAPK8IP1 (11723275_at) / RFU SPTSSB (11747773_x_at) / Fold change /veh SPTSSB (11747773_x_at) / RFU PRSS12 (11739890_at) / Fold change /veh PRSS12 (11739890_at) / RFU BIN1 (11741810_x_at) / Fold change /veh BIN1 (11741810_x_at) / RFU WNT11 (11732464_a_at) / Fold change /veh WNT11 (11732464_a_at) / RFU C10orf10 (11716521_a_at) / Fold change /veh C10orf10 (11716521_a_at) / RFU C5orf56 (11738089_at) / Fold change /veh C5orf56 (11738089_at) / RFU CYB561 (11721691_x_at) / Fold change /veh CYB561 (11721691_x_at) / RFU ANKRD19P (11752326_a_at) / Fold change /veh ANKRD19P (11752326_a_at) / RFU OR2T12 /// OR2T33 /// OR2T8 (11738714_s_at) / Fold change /veh OR2T12 /// OR2T33 /// OR2T8 (11738714_s_at) / RFU VCAN (11748164_a_at) / Fold change /veh VCAN (11748164_a_at) / RFU JSRP1 (11732532_at) / Fold change /veh JSRP1 (11732532_at) / RFU KRTAP10-11 (11738290_x_at) / Fold change /veh KRTAP10-11 (11738290_x_at) / RFU MYO3A (11730013_a_at) / Fold change /veh MYO3A (11730013_a_at) / RFU EBF3 (11725865_a_at) / Fold change /veh EBF3 (11725865_a_at) / RFU CAMK2N1 (11719241_x_at) / Fold change /veh CAMK2N1 (11719241_x_at) / RFU C5orf56 (11738088_a_at) / Fold change /veh C5orf56 (11738088_a_at) / RFU OLFML3 (11715873_a_at) / Fold change /veh OLFML3 (11715873_a_at) / RFU LOC100653217 /// NTM (11731650_a_at) / Fold change /veh LOC100653217 /// NTM (11731650_a_at) / RFU MAPK11 (11762145_a_at) / Fold change /veh MAPK11 (11762145_a_at) / RFU FIZ1 (11724087_x_at) / Fold change /veh FIZ1 (11724087_x_at) / RFU OASL (11726364_x_at) / Fold change /veh OASL (11726364_x_at) / RFU SOX15 (11748057_x_at) / Fold change /veh SOX15 (11748057_x_at) / RFU CD79A (11719716_a_at) / Fold change /veh CD79A (11719716_a_at) / RFU HIST1H1D (11736915_at) / Fold change /veh HIST1H1D (11736915_at) / RFU CASKIN2 (11723855_a_at) / Fold change /veh CASKIN2 (11723855_a_at) / RFU LOC730098 (11760151_x_at) / Fold change /veh LOC730098 (11760151_x_at) / RFU OR4N2 (11742367_at) / Fold change /veh OR4N2 (11742367_at) / RFU PRRT2 (11749266_a_at) / Fold change /veh PRRT2 (11749266_a_at) / RFU SNX32 (11753110_a_at) / Fold change /veh SNX32 (11753110_a_at) / RFU CDHR5 (11726645_a_at) / Fold change /veh CDHR5 (11726645_a_at) / RFU RCAN1 (11760418_a_at) / Fold change /veh RCAN1 (11760418_a_at) / RFU FAM167A (11723789_a_at) / Fold change /veh FAM167A (11723789_a_at) / RFU FAM26E (11764081_at) / Fold change /veh FAM26E (11764081_at) / RFU ISYNA1 (11749810_s_at) / Fold change /veh ISYNA1 (11749810_s_at) / RFU ACY1 (11761880_at) / Fold change /veh ACY1 (11761880_at) / RFU 11764098_at / Fold change /veh 11764098_at / RFU SAMD14 (11745864_x_at) / Fold change /veh SAMD14 (11745864_x_at) / RFU NPB (11741838_a_at) / Fold change /veh NPB (11741838_a_at) / RFU TMPRSS6 (11731388_a_at) / Fold change /veh TMPRSS6 (11731388_a_at) / RFU KRTAP10-2 (11738614_at) / Fold change /veh KRTAP10-2 (11738614_at) / RFU ARHGAP8 /// PRR5-ARHGAP8 (11727945_x_at) / Fold change /veh ARHGAP8 /// PRR5-ARHGAP8 (11727945_x_at) / RFU KRTAP5-7 /// NADSYN1 (11734609_at) / Fold change /veh KRTAP5-7 /// NADSYN1 (11734609_at) / RFU RASL12 (11751679_a_at) / Fold change /veh RASL12 (11751679_a_at) / RFU CDKN2B (11736163_a_at) / Fold change /veh CDKN2B (11736163_a_at) / RFU PRF1 (11729649_at) / Fold change /veh PRF1 (11729649_at) / RFU, ZNF638 /// ZNF638-IT1 / Fold change vs veh, ZNF638 /// ZNF638-IT1 / RFU, PANK3 / Fold change vs veh, PANK3 / RFU, SH3YL1 / Fold change vs veh, SH3YL1 / RFU, ZEB2 / Fold change vs veh, ZEB2 / RFU, NRIP1 / Fold change vs veh, NRIP1 / RFU, PTTG1IP / Fold change vs veh, PTTG1IP / RFU, CAPN2 / Fold change vs veh, CAPN2 / RFU, MED14 / Fold change vs veh, MED14 / RFU, SNORA58 / Fold change vs veh, SNORA58 / RFU, C1orf63 / Fold change vs veh, C1orf63 / RFU, LRRFIP1 / Fold change vs veh, LRRFIP1 / RFU, NDUFAF7 / Fold change vs veh, NDUFAF7 / RFU, SLC12A2 / Fold change vs veh, SLC12A2 / RFU, IBTK / Fold change vs veh, IBTK / RFU, ESF1 / Fold change vs veh, ESF1 / Fold change vs veh, TMEM50B / RFU, TAOK1 / Fold change vs veh, TAOK1 / RFU, ACBD3 / Fold change vs veh, ACBD3 / RFU, TMA16 / Fold change vs veh, TMA16 / RFU, RWDD3 / Fold change vs veh, RWDD3 / RFU, BCAT1 / Fold change vs veh, BCAT1 / RFU, EDEM3 / Fold change vs veh, EDEM3 / RFU, TMEM33 / Fold change vs veh, TMEM33 / RFU, WDR75 / Fold change vs veh, WDR75 / RFU, AHCTF1 / Fold change vs veh, AHCTF1 / RFU, TFRC / Fold change vs veh, TFRC / RFU, ZDHHC17 / Fold change vs veh, ZDHHC17 / RFU, NOM1 / Fold change vs veh, NOM1 / RFU, ARL8B / Fold change vs veh, ARL8B / RFU, ZBTB11 / Fold change vs veh, ZBTB11 / RFU, TAMM41 / Fold change vs veh, TAMM41 / RFU, KIAA1704 /// LOC100996395 / Fold change vs veh, KIAA1704 /// LOC100996395 / RFU, ING1 / Fold change vs veh, ING1 / RFU, TRMT61B / Fold change vs veh, TRMT61B / RFU, FUBP3 / Fold change vs veh, FUBP3 / RFU, TP53 / Fold change vs veh, TP53 / RFU, TNKS2 / Fold change vs veh, TNKS2 / RFU, ZFP14 / Fold change vs veh, ZFP14 / RFU, ACTR2 / Fold change vs veh, ACTR2 / RFU, PPP3R1 / Fold change vs veh, PPP3R1 / RFU, PIK3R1 / Fold change vs veh, PIK3R1 / RFU, HNRNPA1 / Fold change vs veh, HNRNPA1 / RFU, RNF170 / Fold change vs veh, RNF170 / RFU, ZNF28 / Fold change vs veh, ZNF28 / RFU, RNGTT / Fold change vs veh, RNGTT / RFU, OGT / Fold change vs veh, OGT / RFU, BRD1 / Fold change vs veh, BRD1 / RFU, MARS / Fold change vs veh, MARS / RFU, ZNF655 / Fold change vs veh, ZNF655 / RFU, FAHD1 / Fold change vs veh, FAHD1 / RFU, BDP1 / Fold change vs veh, BDP1 / RFU, LRRCC1 / Fold change vs veh, LRRCC1 / RFU, ARID1A / Fold change vs veh, ARID1A / RFU, ZNF146 / Fold change vs veh, ZNF146 / RFU, ZNF330 / Fold change vs veh, ZNF330 / RFU, GPN3 / Fold change vs veh, GPN3 / RFU, C9orf123 / Fold change vs veh, C9orf123 / RFU, N4BP2L2 / Fold change vs veh, N4BP2L2 / RFU, ARFIP1 / Fold change vs veh, ARFIP1 / RFU, FAM179B / Fold change vs veh, FAM179B / RFU, BCL10 / Fold change vs veh, BCL10 / RFU, UHRF1BP1L / Fold change vs veh, UHRF1BP1L / RFU, BET1 / Fold change vs veh, BET1 / RFU, CNOT2 / Fold change vs veh, CNOT2 / RFU, ZNF268 / Fold change vs veh, ZNF268 / Fold change vs veh, ZNF507 / RFU, DGCR2 / Fold change vs veh, DGCR2 / RFU, WDSUB1 / Fold change vs veh, WDSUB1 / Fold change vs veh, HSP90B1 /// MIR3652 / RFU, ADSS / Fold change vs veh, ADSS / RFU, GK / Fold change vs veh, GK / RFU, ZNF148 / Fold change vs veh, ZNF148 / RFU, TAF9 / Fold change vs veh, TAF9 / RFU, SLC1A5 / Fold change vs veh, SLC1A5 / RFU, SLMO2 / Fold change vs veh, SLMO2 / RFU, ABCC4 / Fold change vs veh, ABCC4 / RFU, LOC101060439 /// RAP1B / Fold change vs veh, LOC101060439 /// RAP1B / RFU, RFX7 / Fold change vs veh, RFX7 / RFU, GTPBP10 / Fold change vs veh, GTPBP10 / RFU, CNEP1R1 / Fold change vs veh, CNEP1R1 / RFU, BIVM-ERCC5 /// ERCC5 / Fold change vs veh, BIVM-ERCC5 /// ERCC5 / RFU, ILF3 / Fold change vs veh, ILF3 / RFU 11762660_at / Fold change /veh 11762660_at / RFU VCAN (11757783_s_at) / Fold change /veh VCAN (11757783_s_at) / RFU DDX43 (11728927_at) / Fold change /veh DDX43 (11728927_at) / RFU KRT8 (11758188_x_at) / Fold change /veh KRT8 (11758188_x_at) / RFU NKD1 (11759106_at) / Fold change /veh NKD1 (11759106_at) / RFU SRD5A1 (11742802_a_at) / Fold change /veh SRD5A1 (11742802_a_at) / RFU TPSAB1 /// TPSB2 (11721975_s_at) / Fold change /veh TPSAB1 /// TPSB2 (11721975_s_at) / RFU GSTM3 (11746129_a_at) / Fold change /veh GSTM3 (11746129_a_at) / RFU IL23R (11737362_x_at) / Fold change /veh IL23R (11737362_x_at) / RFU TMEM51 (11727254_a_at) / Fold change /veh TMEM51 (11727254_a_at) / RFU PIWIL2 (11732686_x_at) / Fold change /veh PIWIL2 (11732686_x_at) / RFU ORM1 (11744905_x_at) / Fold change /veh ORM1 (11744905_x_at) / RFU CCDC152 (11743942_at) / Fold change /veh CCDC152 (11743942_at) / RFU ECM1 (11717891_a_at) / Fold change /veh ECM1 (11717891_a_at) / RFU IL23R (11748794_a_at) / Fold change /veh IL23R (11748794_a_at) / RFU TNFAIP8L3 (11732012_x_at) / Fold change /veh TNFAIP8L3 (11732012_x_at) / RFU MBOAT4 (11741988_at) / Fold change /veh MBOAT4 (11741988_at) / RFU 11764193_at / Fold change /veh 11764193_at / RFU TMEM53 (11763286_at) / Fold change /veh TMEM53 (11763286_at) / RFU MAGEB2 (11727129_at) / Fold change /veh MAGEB2 (11727129_at) / RFU TMEM200A (11744735_a_at) / Fold change /veh TMEM200A (11744735_a_at) / RFU CCDC152 (11751479_a_at) / Fold change /veh CCDC152 (11751479_a_at) / RFU FAM211A (11726209_a_at) / Fold change /veh FAM211A (11726209_a_at) / RFU RGS16 (11746705_a_at) / Fold change /veh RGS16 (11746705_a_at) / RFU VCAN (11755009_s_at) / Fold change /veh VCAN (11755009_s_at) / RFU RHOB (11743442_s_at) / Fold change /veh RHOB (11743442_s_at) / RFU RGS16 (11720943_a_at) / Fold change /veh RGS16 (11720943_a_at) / RFU RGS16 (11720944_at) / Fold change /veh RGS16 (11720944_at) / RFU, VPS4B / Fold change vs veh, VPS4B / RFU, CREB1 / Fold change vs veh, CREB1 / RFU, DNAJC13 / Fold change vs veh, DNAJC13 / RFU, GNAQ / Fold change vs veh, GNAQ / RFU, CDK5R1 / Fold change vs veh, CDK5R1 / RFU, ZRANB3 / Fold change vs veh, ZRANB3 / RFU, CUL4A / Fold change vs veh, CUL4A / RFU, CCNY / Fold change vs veh, CCNY / RFU, UFL1 / Fold change vs veh, UFL1 / RFU, COG3 / Fold change vs veh, COG3 / RFU, DIAPH2 / Fold change vs veh, DIAPH2 / RFU, SKA2 / Fold change vs veh, SKA2 / RFU, AFF3 / Fold change vs veh, AFF3 / RFU, LMF1 / Fold change vs veh, LMF1 / RFU, IPO11 / Fold change vs veh, IPO11 / RFU, DFFB / Fold change vs veh, DFFB / RFU, FOXP1 / Fold change vs veh, FOXP1 / RFU, CARD8 / Fold change vs veh, CARD8 / RFU, STRN3 / Fold change vs veh, STRN3 / RFU, ADK / Fold change vs veh, ADK / RFU, RASSF2 / Fold change vs veh, RASSF2 / RFU, WIPF1 / Fold change vs veh, WIPF1 / RFU, LARP1B / Fold change vs veh, LARP1B / RFU, RASA1 / Fold change vs veh, RASA1 / RFU, RB1 / Fold change vs veh, RB1 / RFU, PPFIA1 / Fold change vs veh, PPFIA1 / RFU, MAT2A / Fold change vs veh, MAT2A / RFU, CCT5 / Fold change vs veh, CCT5 / RFU, WDR92 / Fold change vs veh, WDR92 / RFU, CUX1 / Fold change vs veh, CUX1 / RFU, TTC7A / Fold change vs veh, TTC7A / RFU, TMEM135 / Fold change vs veh, TMEM135 / RFU, DEPTOR / Fold change vs veh, DEPTOR / RFU, CPM / Fold change vs veh, CPM / RFU, DNAJB6 / Fold change vs veh, DNAJB6 / RFU, CACNA2D3 / Fold change vs veh, CACNA2D3 / RFU, DTX4 / Fold change vs veh, DTX4 / RFU, TFCP2 / Fold change vs veh, TFCP2 / RFU, GMCL1 /// GMCL1P1 / Fold change vs veh, GMCL1 /// GMCL1P1 / RFU, AEBP2 / Fold change vs veh, AEBP2 / RFU, SNHG1 /// SNORD22 /// SNORD25 /// SNORD26 /// SNORD27 /// SNORD28 /// SNORD29 /// SNORD31 / Fold change vs veh, SNHG1 /// SNORD22 /// SNORD25 /// SNORD26 /// SNORD27 /// SNORD28 /// SNORD29 /// SNORD31 / Fold change (Aza/veh), C12orf56 (ProbeSet 11735607_a_at) / Fold change (ACY-1035/veh), C12orf56 (ProbeSet 11735607_a_at) / Fold change (Aza/veh), FGFR1OP (ProbeSet 11751329_s_at) / Fold change (ACY-1035/veh), FGFR1OP (ProbeSet 11751329_s_at) / Fold change (Aza/veh), VPS36 (ProbeSet 11739960_a_at) / Fold change (ACY-1035/veh), VPS36 (ProbeSet 11739960_a_at) / RFU SYPL1 (11715823_x_at) / Fold change /veh SYPL1 (11715823_x_at) / RFU IGFBP7 (11715501_s_at) / Fold change /veh IGFBP7 (11715501_s_at) / RFU REEP3 (11722064_at) / Fold change /veh REEP3 (11722064_at) / RFU IGLL1 (11728026_x_at) / Fold change /veh IGLL1 (11728026_x_at): dose or concentration left out as unconfirmed. To be noted: MV-4-11 cells, 48 hours.

Turning to `Nc1ccc(-c2cccs2)cc1NC(=O)c1ccc2c(c1)cc(C1CC1)n2CCN1CCOCC1` [ACY-1035], the “RFU PRSS12 (11739890_at)” value worked out at 8.28 RFU.
